Patent US8153397B2 (priority 1993, dated 2012)
“Also recorded” adds a separate entry of the source.

Target: BoNT/A LC (Clostridium botulinum, UniProt P0DPI0)
Type: biochemical

Chain of BoNT/A LC (P0DPI0 3-448, added parts left off): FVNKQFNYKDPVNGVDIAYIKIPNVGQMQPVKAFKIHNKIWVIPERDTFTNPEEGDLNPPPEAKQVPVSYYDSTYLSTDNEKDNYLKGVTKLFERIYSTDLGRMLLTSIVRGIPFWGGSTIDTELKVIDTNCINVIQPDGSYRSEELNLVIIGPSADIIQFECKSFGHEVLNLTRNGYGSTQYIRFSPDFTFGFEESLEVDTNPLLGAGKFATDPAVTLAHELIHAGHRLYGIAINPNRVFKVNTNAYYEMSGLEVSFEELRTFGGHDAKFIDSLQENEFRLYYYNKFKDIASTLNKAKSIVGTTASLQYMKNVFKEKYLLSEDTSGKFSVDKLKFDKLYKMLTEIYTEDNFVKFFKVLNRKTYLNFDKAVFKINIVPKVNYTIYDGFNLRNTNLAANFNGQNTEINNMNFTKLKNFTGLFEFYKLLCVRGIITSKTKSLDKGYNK

SMILES | effect on truncation and fragmentation of the LC
O=C(O)CN(CCN(CC(=O)O)CC(=O)O)CC(=O)O [EDTA] | failed to protect; also recorded: little effect on proteolysis
c1ccc(CN(CCN(Cc2ccccn2)Cc2ccccn2)Cc2ccccn2)nc1 [TPEN] | largely protected; also recorded: significantly reduced the rate of conversion of IA to IB
